Experimental data as given in patent publication US20080139655A1, “SUSTAINED-RELEASE COMPOSITION AND METHOD OF USE THEREOF” (DrugTech Corporation, priority 2006, published 2008).

Assays:
[1] = Dissolution testing of tablet formulations A and B (USP apparatus II with paddles, 50 rpm, 900 ml 0.1N HCl); assay type: physicochemical; conditions: USP apparatus II paddles 50 rpm, typical range for both formulations
Method: Tablet formulations A and B prepared as above are subjected to dissolution testing for both levodopa and carbidopa (USP apparatus II with paddles, 50 rpm, dissolution medium 900 ml 0.1N HCl) over a 12 hour period.

[2] = approximately; background statement; cited from earlier work

SMILES: C[C@@](Cc1ccc(O)c(O)c1)(NN)C(=O)O [carbidopa]
- % Dissolved ([1]; time 1 h): 15-25%
- % Dissolved ([1]; time 2 h): 25-40%
- % Dissolved ([1]; time 4 h): 40-70%
- % Dissolved ([1]; time 8 h): 65-80%
- % Dissolved ([1]; time 12 h): 80-95%

SMILES: N[C@@H](Cc1ccc(O)c(O)c1)C(=O)O [levodopa, 3,4-dihydroxy-L-phenylalanine]
- half-life [2]: 45 to 90 min
- % Dissolved ([1]; time 1 h): 15-25%
- % Dissolved ([1]; time 2 h): 25-40%
- % Dissolved ([1]; time 4 h): 40-70%
- % Dissolved ([1]; time 8 h): 65-80%
- % Dissolved ([1]; time 12 h): 80-95%
